Results published in patent publication US6911431B1 (priority 1989, dated 2005).

What was measured:
Lewis lung carcinoma = test: Inhibition of Lewis lung tumor neovascularization; type: in vivo, C57BL/6 mice
Procedure: Lewis lung carcinoma cells (5×10^7) when injected (0.1 ml) intradermally into both flanks of C57BL/6 mice (day 0) produce a visible highly vascularized tumor nodules within 7 days. By excising the tumor the degree of tumor vascularity may be determined microscopically by counting the number of large vessels radiating from the tumor mass.

[1] = tested on: chicken embryo chorioallantoic membrane; test: Chicken embryo chorioallantoic membrane (CAM) angiogenesis assay; type: in vivo; conditions: for Inhibition of Neovascularization Grade/Range / Mean % Inhibition of Neovascularization / Inhibition of Neovascularization Grade/Mean ± SD: 48 hrs; for Inhibition of Neovascularization Grade/Mean ± SD: grade scale 0-4
Procedure: Briefly, eight-day chicken embryos were removed from eggs and placed into sterile petri dishes. Individual filter paper disks were saturated with 7.5 μl of different stock solutions of L-Glu-L-Trp dissolved in sterile 0.14M NaCl to achieve final test concentrations of 0.001, 0.01, 0.1, 1.0, 10, 100, 500, and 1000 μg per disk. Disks were air dried and then inverted onto the surface of the respective embryos.
In this experiment saline served as a negative control and 10 μg/disk of heparin served as a positive control. The pentapeptide Thr-Ala-Glu-Glu-Lys (TAEEK) (SEQ ID NO 7) served as a specificity control, (i.e., for possible nonspecific effects of peptides on neovascularization at the concentrations tested). Nine-12 test disks and a corresponding number of different embryos were employed for each test concentration along with […] (each) positive and negative control embryos.

Sarcoma 180 tumors = test: Sarcoma 180 tumor size after prophylactic treatment; type: in vivo, Swiss-Webster mice
Procedure: Neovascularization is required for tumor growth. Anti-tumor activity of L-Glu-L-Trp was evaluated at an independent contract research organization. Sarcoma 180 tumors (ATCC CCL-8 CCRF S-180 II) were induced by injecting 2×10^6 cells/0.1 ml im into each rear flank of Swiss-Webster mice. Groups consisted of 10 animals (20 tumors). L-Glu-L-Trp was administered in a single 0.1 ml dose of either 10 μg/kg, 75 μg/kg, 250 μg/kg or 1000 μg/kg. Tumor size was evaluated by surgically removing and weighing the affected limbs, and comparing the weight with the weight of normal control (non-tumor) limbs. The first prophylactic drug regimen (PDR-1) consisted of 5 consecutive daily ip injections commencing on day −5 and ending of day −1. The second prophylactic drug regimen (PDR-2) consisted of 5 consecutive daily im injections to the left rear flank (tumor site) beginning on day −5 and ending on day −1. Sarcoma 180 cells were injected im on day 0. Saline 0.1 ml served as the negative control.

[2] = PDR-1 (ip, day −5 to −1), 10 μg/kg
[3] = PDR-1 (ip, day −5 to −1), 75 μg/kg
[4] = PDR-1 (ip, day −5 to −1), 250 μg/kg
[5] = PDR-1 (ip, day −5 to −1), 1000 μg/kg
[6] = PDR-2 (im left flank), 10 μg/kg
[7] = PDR-2 (im left flank), 75 μg/kg
[8] = PDR-2 (im left flank), 250 μg/kg
[9] = PDR-2 (im left flank), 1000 μg/kg
[10] = PDR-2 (im left rear flank, day −5 to −1), 10 μg/kg
[11] = PDR-2 (im left rear flank, day −5 to −1), 75 μg/kg
[12] = PDR-2 (im left rear flank, day −5 to −1), 250 μg/kg
[13] = PDR-2 (im left rear flank, day −5 to −1), 1000 μg/kg

O=P1(N(CCCl)CCCl)NCCCO1 (stereo not shown) [Cytoxan, reference compound]
No. Vessels (Mean ± S.D.) (Lewis lung carcinoma; Dose 200 (column head μg/kg/dose), administered only on day 2): 9 ± 5

L-Glu-L-Trp
Inhibition of Neovascularization Grade/Range ([1]; 0.001 μg/disk): 0-2 | Mean % Inhibition of Neovascularization ([1]; 0.001 μg/disk): 33 ± 20% | Inhibition of Neovascularization Grade/Mean ± SD ([1]; 0.001 μg/disk): 1.3 ± 0.82 | decrease in vascularity in embryos ([1]; 10 ng-1000 μg in saline): 30-88% | Inhibition of Neovascularization Grade/Range ([1]; 0.01 μg/disk): 1-2 | Mean % Inhibition of Neovascularization ([1]; 0.01 μg/disk): 38 ± 13% | Inhibition of Neovascularization Grade/Mean ± SD ([1]; 0.01 μg/disk): 1.5 ± 0.53 | Inhibition of Neovascularization Grade/Range ([1]; 0.1 μg/disk): 0-3 | Mean % Inhibition of Neovascularization ([1]; 0.1 μg/disk): 48 ± 23% | Inhibition of Neovascularization Grade/Mean ± SD ([1]; 0.1 μg/disk): 1.9 ± 0.88 | Inhibition of Neovascularization Grade/Range ([1]; 1 μg/disk): 1-4 | Mean % Inhibition of Neovascularization ([1]; 1 μg/disk): 58 ± 23% | Inhibition of Neovascularization Grade/Mean ± SD ([1]; 1 μg/disk): 2.33 ± 0.89 | Inhibition of Neovascularization Grade/Range ([1]; 10 μg/disk): 1-4 | Mean % Inhibition of Neovascularization ([1]; 10 μg/disk): 78 ± 28% | Inhibition of Neovascularization Grade/Mean ± SD ([1]; 10 μg/disk): 3.09 ± 1.14 | Inhibition of Neovascularization Grade/Range ([1]; 100 μg/disk): 3-4 | Mean % Inhibition of Neovascularization ([1]; 100 μg/disk): 85 ± 18% | Inhibition of Neovascularization Grade/Mean ± SD ([1]; 100 μg/disk): 3.44 ± 0.73 | Inhibition of Neovascularization Grade/Range ([1]; 500 μg/disk): 1-4 | Mean % Inhibition of Neovascularization ([1]; 500 μg/disk): 60 ± 20% | Inhibition of Neovascularization Grade/Mean ± SD ([1]; 500 μg/disk): 2.4 ± 0.84 | Inhibition of Neovascularization Grade/Range ([1]; 1000 μg/disk): 2-4 | Mean % Inhibition of Neovascularization ([1]; 1000 μg/disk): 83 ± 20% | Inhibition of Neovascularization Grade/Mean ± SD ([1]; 1000 μg/disk): 3.3 ± 0.82 | No. Vessels (Mean ± S.D.) (Lewis lung carcinoma; 125 μg/kg/dose im daily for 5 days): 6 ± 3 | No. Vessels (Mean ± S.D.) (Lewis lung carcinoma; 250 μg/kg/dose im daily for 5 days): 7 ± 2 | No. Vessels (Mean ± S.D.) (Lewis lung carcinoma; 500 μg/kg/dose im daily for 5 days): 9 ± 4 | No. Vessels (Mean ± S.D.) (Lewis lung carcinoma; 1000 μg/kg/dose im daily for 5 days): 12 ± 5 | No. Vessels (Mean ± S.D.) (Lewis lung carcinoma; 2000 μg/kg/dose im daily for 5 days): 17 ± 7 | Mean Tumor Weight Left (Sarcoma 180 tumors; PDR-1 (ip), 10 μg/kg): 3.0 | Percent of Control Tumor Weight Left (Sarcoma 180 tumors; PDR-1 (ip), 10 μg/kg): 120% | Mean Tumor Weight Right (Sarcoma 180 tumors; PDR-1 (ip), 10 μg/kg): 2.9 | Percent of Control Tumor Weight Right (Sarcoma 180 tumors; PDR-1 (ip), 10 μg/kg): 126% | Mean Tumor Weight Left (Sarcoma 180 tumors; PDR-1 (ip), 75 μg/kg): 3.0 | Percent of Control Tumor Weight Left (Sarcoma 180 tumors; PDR-1 (ip), 75 μg/kg): 120% | Mean Tumor Weight Right (Sarcoma 180 tumors; PDR-1 (ip), 75 μg/kg): 3.0 | Percent of Control Tumor Weight Right (Sarcoma 180 tumors; PDR-1 (ip), 75 μg/kg): 130% | Mean Tumor Weight Left (Sarcoma 180 tumors; PDR-1 (ip), 250 μg/kg): 2.3 | Percent of Control Tumor Weight Left (Sarcoma 180 tumors; PDR-1 (ip), 250 μg/kg): 92% | Mean Tumor Weight Right (Sarcoma 180 tumors; PDR-1 (ip), 250 μg/kg): 1.9 | Percent of Control Tumor Weight Right (Sarcoma 180 tumors; PDR-1 (ip), 250 μg/kg): 83% | Mean Tumor Weight Left (Sarcoma 180 tumors; PDR-1 (ip), 1000 μg/kg): 1.3 | Percent of Control Tumor Weight Left (Sarcoma 180 tumors; PDR-1 (ip), 1000 μg/kg): 52% | Mean Tumor Weight Right (Sarcoma 180 tumors; PDR-1 (ip), 1000 μg/kg): 1.0 | Percent of Control Tumor Weight Right (Sarcoma 180 tumors; PDR-1 (ip), 1000 μg/kg): 43% | Leg Weight Left (Sarcoma 180 tumors; [2]): 4.2 ± 0.9 g | Leg Weight Right (Sarcoma 180 tumors; [2]): 4.1 ± 0.7 g | Leg Weight Left (Sarcoma 180 tumors; [3]): 4.2 ± 0.8 g | Leg Weight Right (Sarcoma 180 tumors; [3]): 4.2 ± 0.8 g | Leg Weight Left (Sarcoma 180 tumors; [4]): 3.5 ± 1.0 g | Leg Weight Right (Sarcoma 180 tumors; [4]): 3.1 ± 0.6 g | Leg Weight Left (Sarcoma 180 tumors; [5]): 2.5 ± 0.7 g | Leg Weight Right (Sarcoma 180 tumors; [5]): 2.2 ± 0.5 g | Mean Tumor Weight Left (Sarcoma 180 tumors; [6]): 2.4 | Percent of Control Tumor Weight Left (Sarcoma 180 tumors; [6]): 96% | Mean Tumor Weight Right (Sarcoma 180 tumors; [6]): 2.6 | Percent of Control Tumor Weight Right (Sarcoma 180 tumors; [6]): 113% | Mean Tumor Weight Left (Sarcoma 180 tumors; [7]): 2.4 | Percent of Control Tumor Weight Left (Sarcoma 180 tumors; [7]): 96% | Mean Tumor Weight Right (Sarcoma 180 tumors; [7]): 3.3 | Percent of Control Tumor Weight Right (Sarcoma 180 tumors; [7]): 143% | Mean Tumor Weight Left (Sarcoma 180 tumors; [8]): 1.8 | Percent of Control Tumor Weight Left (Sarcoma 180 tumors; [8]): 72% | Mean Tumor Weight Right (Sarcoma 180 tumors; [8]): 1.1 | Percent of Control Tumor Weight Right (Sarcoma 180 tumors; [8]): 48% | Mean Tumor Weight Left (Sarcoma 180 tumors; [9]): 1.2 | Percent of Control Tumor Weight Left (Sarcoma 180 tumors; [9]): 48% | Mean Tumor Weight Right (Sarcoma 180 tumors; [9]): 1.3 | Percent of Control Tumor Weight Right (Sarcoma 180 tumors; [9]): 57% | Leg Weight Left (Sarcoma 180 tumors; [10]): 3.6 ± 0.7 g | Leg Weight Right (Sarcoma 180 tumors; [10]): 3.8 ± 0.7 g | Leg Weight Left (Sarcoma 180 tumors; [11]): 3.6 ± 0.7 g | Leg Weight Right (Sarcoma 180 tumors; [11]): 3.5 ± 0.3 g | Leg Weight Left (Sarcoma 180 tumors; [12]): 3.0 ± 0.1 g | Leg Weight Right (Sarcoma 180 tumors; [12]): 2.3 ± 0.5 g | Leg Weight Left (Sarcoma 180 tumors; [13]): 2.4 ± 0.5 g | Leg Weight Right (Sarcoma 180 tumors; [13]): 2.5 ± 0.5 g
